Laboratory results published in PMC11062922 (Nature Chemical Biology, 2023).
Read-outs that look alike come from different tables or passages of the source. Blank lines part the entries; values can stand above or below the compound they belong to.

Experiments:
TGFBR2 = molecular target: T1, TGFBR2 (Homo sapiens, UniProt P37173); assay: Kinobeads full dose-response competition binding: TGFBR2; conditions: Gene Name TGFBR2
T1 construct: endogenous in cells

PRKCB = molecular target: T2, PRKCB (Homo sapiens, UniProt P05771); assay: Kinobeads full dose-response competition binding: PRKCB; conditions: Gene Name PRKCB
T2 construct: endogenous in cells
T2 sequence (P05771 whole entry): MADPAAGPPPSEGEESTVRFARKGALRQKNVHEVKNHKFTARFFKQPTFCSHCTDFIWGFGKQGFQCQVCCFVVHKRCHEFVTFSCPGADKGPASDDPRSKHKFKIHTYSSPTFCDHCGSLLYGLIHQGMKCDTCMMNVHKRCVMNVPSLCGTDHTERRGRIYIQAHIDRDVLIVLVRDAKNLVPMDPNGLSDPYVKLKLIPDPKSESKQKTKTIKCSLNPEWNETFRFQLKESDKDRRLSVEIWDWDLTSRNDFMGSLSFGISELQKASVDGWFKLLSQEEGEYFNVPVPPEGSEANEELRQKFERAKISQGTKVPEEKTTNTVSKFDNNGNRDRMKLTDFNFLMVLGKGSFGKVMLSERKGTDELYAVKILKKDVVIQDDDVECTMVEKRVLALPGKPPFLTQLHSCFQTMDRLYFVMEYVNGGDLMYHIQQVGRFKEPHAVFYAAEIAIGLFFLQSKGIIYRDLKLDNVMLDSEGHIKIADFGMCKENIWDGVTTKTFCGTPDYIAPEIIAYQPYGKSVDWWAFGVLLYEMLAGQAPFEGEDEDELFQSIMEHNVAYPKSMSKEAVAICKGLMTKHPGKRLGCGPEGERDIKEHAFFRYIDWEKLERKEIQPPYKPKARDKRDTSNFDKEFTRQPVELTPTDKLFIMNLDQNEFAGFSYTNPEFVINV

CIT = molecular target: T3, CIT (Homo sapiens, UniProt O14578); assay: Kinobeads full dose-response competition binding: CIT; conditions: Gene Name CIT
T3 construct: endogenous in cells
T3 sequence (O14578 whole entry): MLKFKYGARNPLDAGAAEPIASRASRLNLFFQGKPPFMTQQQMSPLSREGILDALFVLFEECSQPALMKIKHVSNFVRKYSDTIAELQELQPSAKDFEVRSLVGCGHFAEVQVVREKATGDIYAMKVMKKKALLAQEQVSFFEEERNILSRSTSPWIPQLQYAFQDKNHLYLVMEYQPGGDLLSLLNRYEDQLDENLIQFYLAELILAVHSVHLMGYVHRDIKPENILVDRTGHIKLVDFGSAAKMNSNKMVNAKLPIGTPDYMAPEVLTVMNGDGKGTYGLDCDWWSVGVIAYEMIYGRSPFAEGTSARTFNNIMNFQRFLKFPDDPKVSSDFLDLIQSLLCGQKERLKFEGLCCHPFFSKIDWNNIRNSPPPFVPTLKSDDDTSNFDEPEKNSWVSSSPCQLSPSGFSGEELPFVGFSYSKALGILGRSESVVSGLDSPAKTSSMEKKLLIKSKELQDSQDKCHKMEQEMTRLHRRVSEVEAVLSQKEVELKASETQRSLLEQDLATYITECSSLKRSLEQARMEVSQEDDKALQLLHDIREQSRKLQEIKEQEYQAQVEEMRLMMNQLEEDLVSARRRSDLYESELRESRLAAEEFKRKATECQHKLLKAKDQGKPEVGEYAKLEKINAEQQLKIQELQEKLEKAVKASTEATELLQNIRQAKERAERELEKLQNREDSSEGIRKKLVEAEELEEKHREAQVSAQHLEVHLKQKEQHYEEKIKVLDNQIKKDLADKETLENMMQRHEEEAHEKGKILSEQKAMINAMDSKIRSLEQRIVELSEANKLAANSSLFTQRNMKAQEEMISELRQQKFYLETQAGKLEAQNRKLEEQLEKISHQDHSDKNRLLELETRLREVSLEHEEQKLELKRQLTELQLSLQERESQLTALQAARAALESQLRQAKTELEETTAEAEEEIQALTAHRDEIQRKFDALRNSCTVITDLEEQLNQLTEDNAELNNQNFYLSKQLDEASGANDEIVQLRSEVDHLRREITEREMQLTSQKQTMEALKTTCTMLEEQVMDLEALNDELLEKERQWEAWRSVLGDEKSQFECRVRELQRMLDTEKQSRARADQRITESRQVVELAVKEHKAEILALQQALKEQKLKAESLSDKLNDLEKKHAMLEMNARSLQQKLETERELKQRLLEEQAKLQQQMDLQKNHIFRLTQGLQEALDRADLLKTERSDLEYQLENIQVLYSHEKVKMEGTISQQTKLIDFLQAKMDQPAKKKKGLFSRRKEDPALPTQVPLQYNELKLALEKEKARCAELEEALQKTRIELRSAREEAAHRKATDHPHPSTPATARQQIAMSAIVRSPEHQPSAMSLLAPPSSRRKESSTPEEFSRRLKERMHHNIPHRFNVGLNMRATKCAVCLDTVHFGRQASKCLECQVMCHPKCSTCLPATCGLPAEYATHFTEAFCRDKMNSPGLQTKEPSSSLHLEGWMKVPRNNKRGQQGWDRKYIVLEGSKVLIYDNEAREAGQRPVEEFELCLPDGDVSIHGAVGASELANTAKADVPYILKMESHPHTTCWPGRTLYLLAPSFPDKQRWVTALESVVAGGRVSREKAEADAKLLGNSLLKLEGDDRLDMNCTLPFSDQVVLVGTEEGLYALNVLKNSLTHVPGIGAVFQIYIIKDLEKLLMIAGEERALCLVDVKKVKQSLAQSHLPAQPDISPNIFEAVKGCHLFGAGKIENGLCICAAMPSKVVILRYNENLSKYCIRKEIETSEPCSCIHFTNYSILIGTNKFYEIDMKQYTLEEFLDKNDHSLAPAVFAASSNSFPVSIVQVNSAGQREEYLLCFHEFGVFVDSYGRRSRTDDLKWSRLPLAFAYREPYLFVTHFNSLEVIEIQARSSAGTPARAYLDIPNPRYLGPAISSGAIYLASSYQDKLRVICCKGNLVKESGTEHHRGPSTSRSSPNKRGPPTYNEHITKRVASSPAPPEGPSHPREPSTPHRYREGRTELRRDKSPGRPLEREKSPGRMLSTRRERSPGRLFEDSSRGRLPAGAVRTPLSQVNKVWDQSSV

PRKACG [1] = molecular target: T4, PRKACG (Homo sapiens, UniProt P22612); assay: Kinobeads competition binding, Lestaurtinib control replicates: PRKACG; conditions: read-out: Lestaurtinib Drugmatrix value; Gene Name PRKACG; one column per experiment number and replicate (R1-R3)
T4 construct: endogenous in cells
T4 sequence (P22612 whole entry): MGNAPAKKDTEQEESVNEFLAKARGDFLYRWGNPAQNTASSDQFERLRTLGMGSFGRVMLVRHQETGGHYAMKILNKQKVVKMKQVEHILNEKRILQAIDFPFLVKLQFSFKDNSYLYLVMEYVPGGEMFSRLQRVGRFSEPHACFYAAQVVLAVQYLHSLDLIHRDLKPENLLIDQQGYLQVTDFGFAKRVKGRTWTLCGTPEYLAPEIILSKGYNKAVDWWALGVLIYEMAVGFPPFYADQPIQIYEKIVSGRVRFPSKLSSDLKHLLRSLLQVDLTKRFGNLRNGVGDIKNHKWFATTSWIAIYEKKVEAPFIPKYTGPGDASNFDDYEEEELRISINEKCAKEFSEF

PAK6 = molecular target: T5, PAK6 (Homo sapiens, UniProt Q9NQU5); assay: Kinobeads competition binding, Lestaurtinib control replicates: PAK6; conditions: read-out: Lestaurtinib Drugmatrix value; Gene Name PAK6; one column per experiment number and replicate (R1-R3)
T5 construct: a mixture of lysates from five cancer cell lines; endogenous in cells

AURKB = molecular target: T6, AURKB (Homo sapiens, UniProt Q96GD4); assay: Kinobeads two-dose competition binding: AURKB; conditions: read-out: Lestaurtinib Drugmatrix value, Gene Name AURKB
T6 construct: endogenous in cells

HCK = molecular target: T7, HCK (Homo sapiens, UniProt P08631); assay: Kinobeads two-dose competition binding: HCK; conditions: read-out: Lestaurtinib Drugmatrix value, Gene Name HCK; target HCK; each column = one Lestaurtinib control replicate (batch_R1-R3)
T7 construct: endogenous in cells

PHKG2 = molecular target: T8, PHKG2 (Homo sapiens, UniProt P15735); assay: Kinobeads competition binding, Lestaurtinib control replicates: PHKG2; conditions: read-out: Lestaurtinib Drugmatrix value; Gene Name PHKG2; one column per experiment number and replicate (R1-R3)
T8 construct: a mixture of lysates from five cancer cell lines; endogenous in cells
T8 sequence (P15735 1-406): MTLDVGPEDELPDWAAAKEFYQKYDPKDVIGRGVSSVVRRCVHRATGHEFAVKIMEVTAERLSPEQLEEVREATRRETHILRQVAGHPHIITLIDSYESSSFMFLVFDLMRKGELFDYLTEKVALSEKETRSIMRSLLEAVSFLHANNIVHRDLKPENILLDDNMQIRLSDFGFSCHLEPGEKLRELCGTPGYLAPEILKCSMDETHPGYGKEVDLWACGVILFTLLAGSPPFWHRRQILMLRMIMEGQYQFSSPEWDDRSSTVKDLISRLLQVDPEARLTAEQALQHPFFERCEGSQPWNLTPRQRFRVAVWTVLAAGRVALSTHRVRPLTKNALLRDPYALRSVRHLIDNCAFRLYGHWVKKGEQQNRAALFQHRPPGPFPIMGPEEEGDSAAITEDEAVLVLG

EPHA5 = molecular target: T9, EPHA5 (Homo sapiens, UniProt P54756); assay: Kinobeads two-dose competition binding: EPHA5; conditions: read-out: Lestaurtinib Drugmatrix value, Gene Name EPHA5
T9 construct: endogenous in cells

ERN2 = molecular target: T10, ERN2 (Homo sapiens, UniProt Q76MJ5); assay: Kinobeads two-dose competition binding: ERN2; conditions: read-out: Lestaurtinib Drugmatrix value, Gene Name ERN2
T10 construct: endogenous in cells
T10 sequence (Q76MJ5 35-926): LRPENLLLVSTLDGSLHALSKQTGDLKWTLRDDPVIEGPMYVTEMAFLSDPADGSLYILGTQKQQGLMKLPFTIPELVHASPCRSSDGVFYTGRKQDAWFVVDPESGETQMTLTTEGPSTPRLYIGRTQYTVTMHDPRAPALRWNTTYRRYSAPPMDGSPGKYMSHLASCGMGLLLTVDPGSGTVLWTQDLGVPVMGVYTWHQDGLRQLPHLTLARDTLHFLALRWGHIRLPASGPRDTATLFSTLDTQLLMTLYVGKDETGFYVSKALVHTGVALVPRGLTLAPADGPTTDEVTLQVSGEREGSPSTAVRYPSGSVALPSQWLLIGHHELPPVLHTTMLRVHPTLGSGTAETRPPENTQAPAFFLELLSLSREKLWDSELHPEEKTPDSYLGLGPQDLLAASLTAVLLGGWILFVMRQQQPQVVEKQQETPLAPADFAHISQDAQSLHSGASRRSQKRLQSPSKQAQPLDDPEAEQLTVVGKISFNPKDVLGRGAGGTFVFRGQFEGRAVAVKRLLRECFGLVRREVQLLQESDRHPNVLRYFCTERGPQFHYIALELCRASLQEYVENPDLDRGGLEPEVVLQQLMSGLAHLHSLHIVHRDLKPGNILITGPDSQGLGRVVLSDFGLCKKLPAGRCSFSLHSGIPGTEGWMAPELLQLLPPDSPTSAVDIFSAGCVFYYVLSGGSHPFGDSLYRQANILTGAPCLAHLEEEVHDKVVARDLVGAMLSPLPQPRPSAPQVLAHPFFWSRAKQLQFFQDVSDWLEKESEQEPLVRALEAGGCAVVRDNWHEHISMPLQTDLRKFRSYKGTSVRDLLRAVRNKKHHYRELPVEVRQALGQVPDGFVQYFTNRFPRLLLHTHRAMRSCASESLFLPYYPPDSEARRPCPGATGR

ULK3 = molecular target: T11, ULK3 (Homo sapiens, UniProt Q6PHR2); assay: Kinobeads two-dose competition binding: ULK3
T11 construct: endogenous in cells
T11 sequence (Q6PHR2 whole entry): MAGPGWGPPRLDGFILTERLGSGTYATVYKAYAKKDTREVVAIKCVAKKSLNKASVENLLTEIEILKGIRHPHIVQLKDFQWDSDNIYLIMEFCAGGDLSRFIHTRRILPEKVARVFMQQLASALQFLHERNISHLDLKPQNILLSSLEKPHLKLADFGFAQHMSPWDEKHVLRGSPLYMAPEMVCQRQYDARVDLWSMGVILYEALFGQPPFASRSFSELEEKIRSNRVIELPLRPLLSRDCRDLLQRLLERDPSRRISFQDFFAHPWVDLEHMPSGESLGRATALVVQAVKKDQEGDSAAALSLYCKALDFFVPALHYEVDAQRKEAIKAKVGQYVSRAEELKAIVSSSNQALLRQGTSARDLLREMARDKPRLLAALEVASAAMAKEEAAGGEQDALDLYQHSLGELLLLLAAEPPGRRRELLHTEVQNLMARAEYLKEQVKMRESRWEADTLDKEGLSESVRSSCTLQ

PIK3CA = molecular target: T12, PIK3CA (Homo sapiens, UniProt P42336); assay: Kinobeads competition binding, Lestaurtinib control replicates: PIK3CA; conditions: read-out: Lestaurtinib Drugmatrix value; Gene Name PIK3CA; one column per experiment number and replicate (R1-R3)
T12 construct: a mixture of lysates from five cancer cell lines; endogenous in cells

PRKACG [2] = molecular target: T4, PRKACG; assay: Kinobeads full dose-response competition binding: PRKACG; conditions: Gene Name PRKACG
[3] = EC50 with Correction, doses in nM, read-out: apparent Kd
[4] = eight-dose curve fit, doses in nM

T1 sequence (P37173 23-567): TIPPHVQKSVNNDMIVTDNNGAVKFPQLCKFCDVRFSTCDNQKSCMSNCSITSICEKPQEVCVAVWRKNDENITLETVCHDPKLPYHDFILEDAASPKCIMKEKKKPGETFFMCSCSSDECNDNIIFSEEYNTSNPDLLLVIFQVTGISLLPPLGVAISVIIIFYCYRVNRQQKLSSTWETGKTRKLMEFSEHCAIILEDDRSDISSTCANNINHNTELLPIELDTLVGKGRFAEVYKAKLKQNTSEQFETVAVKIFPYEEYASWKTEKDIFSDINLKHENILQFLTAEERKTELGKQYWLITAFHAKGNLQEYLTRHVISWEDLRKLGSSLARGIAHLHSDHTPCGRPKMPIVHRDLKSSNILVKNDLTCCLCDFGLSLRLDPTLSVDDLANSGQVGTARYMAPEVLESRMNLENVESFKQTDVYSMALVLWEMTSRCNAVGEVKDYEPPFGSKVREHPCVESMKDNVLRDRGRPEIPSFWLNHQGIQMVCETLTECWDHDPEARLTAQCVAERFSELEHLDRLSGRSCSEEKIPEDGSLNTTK

SMILES: NCc1ccc(-c2nc(-c3ccncc3)c(-c3ccc(Cl)c(O)c3)[nH]2)cc1 [SB-476429-A]
- Relative Intensity 0.3nM (TGFBR2; 0.3nM compound, DMSO = 1): 0.9776
- Relative Intensity 1nM (TGFBR2; 1nM compound, DMSO = 1): 1.003
- Relative Intensity 3nM (TGFBR2; 3nM compound, DMSO = 1): 1.034
- Relative Intensity 10nM (TGFBR2; 10nM compound, DMSO = 1): 1.093
- Relative Intensity 30nM (TGFBR2; 30nM compound, DMSO = 1): 0.9102
- Relative Intensity 100nM (TGFBR2; 100nM compound, DMSO = 1): 0.8621
- Relative Intensity 300nM (TGFBR2; 300nM compound, DMSO = 1): 0.7152
- Relative Intensity 1000nM (TGFBR2; 1000nM compound, DMSO = 1): 0.41
- Kd (TGFBR2; [3]): 767 nM
- EC50 (TGFBR2; [4]): 871 nM

- Relative Intensity 0.3nM (PRKCB; 0.3nM compound, DMSO = 1): 1.022
- Relative Intensity 1nM (PRKCB; 1nM compound, DMSO = 1): 1.013
- Relative Intensity 3nM (PRKCB; 3nM compound, DMSO = 1): 1.059
- Relative Intensity 10nM (PRKCB; 10nM compound, DMSO = 1): 1.038
- Relative Intensity 30nM (PRKCB; 30nM compound, DMSO = 1): 0.9653
- Relative Intensity 100nM (PRKCB; 100nM compound, DMSO = 1): 0.9
- Relative Intensity 300nM (PRKCB; 300nM compound, DMSO = 1): 0.7943
- Relative Intensity 1000nM (PRKCB; 1000nM compound, DMSO = 1): 0.5993
- Kd (PRKCB; [3]): 401 nM
- EC50 (PRKCB; [4]): 410 nM
- Relative Intensity 0.3nM (CIT; 0.3nM compound, DMSO = 1): 1.0296
- Relative Intensity 1nM (CIT; 1nM compound, DMSO = 1): 1.0023
- Relative Intensity 3nM (CIT; 3nM compound, DMSO = 1): 1.019
- Relative Intensity 10nM (CIT; 10nM compound, DMSO = 1): 1.082
- Relative Intensity 30nM (CIT; 30nM compound, DMSO = 1): 1.01
- Relative Intensity 100nM (CIT; 100nM compound, DMSO = 1): 0.9604
- Relative Intensity 300nM (CIT; 300nM compound, DMSO = 1): 0.7575
- Relative Intensity 1000nM (CIT; 1000nM compound, DMSO = 1): 0.5648
- Kd (CIT; [3]): 279 nM
- EC50 (CIT; [4]): 279 nM
SMILES: CCn1c(-c2nonc2N)nc2c(C#CC(C)(C)O)nc(OCCN)cc21 [GSK902056A]

SMILES: C[C@]12O[C@H](C[C@]1(O)CO)n1c3ccccc3c3c4c(c5c6ccccc6n2c5c31)CNC4=O [Lestaurtinib]
- potency estimated from few doses (PRKACG [1]): 769 nM
- potency estimated from few doses (PAK6): 151 nM
- potency estimated from few doses (AURKB): 146 nM
- potency estimated from few doses (HCK): 587 nM
- potency estimated from few doses (PHKG2): 321 nM
- potency estimated from few doses (EPHA5): 255 nM
- potency estimated from few doses (ERN2): 346 nM
- potency estimated from few doses (ULK3; read-out: Lestaurtinib Drugmatrix value, Gene Name ULK3, repeated control pulldowns; each column = experiment id and replicate (Lestaurtinib_02339_R1 ... Lestaurtinib_03260_R3)): 113 nM
- potency estimated from few doses (ULK3; read-out: Lestaurtinib Drugmatrix value, Gene Name ULK3; repeated control pulldowns; each column = experiment id and replicate (Lestaurtinib_02339_R1 ... Lestaurtinib_03260_R3)): 218 nM
- potency estimated from few doses (PIK3CA): 156 nM

SMILES: CCn1c(-c2nonc2N)nc2c(C#CC(C)(C)O)nc(OCCNC)cc21 [GSK949675A]
- Relative Intensity 0.3nM (PRKACG [2]; 0.3nM compound, DMSO = 1): 0.6931
- Relative Intensity 1nM (PRKACG [2]; 1nM compound, DMSO = 1): 0.8057
- Relative Intensity 3nM (PRKACG [2]; 3nM compound, DMSO = 1): 0.9707
- Relative Intensity 10nM (PRKACG [2]; 10nM compound, DMSO = 1): 0.8006
- Relative Intensity 30nM (PRKACG [2]; 30nM compound, DMSO = 1): 0.7952
- Relative Intensity 100nM (PRKACG [2]; 100nM compound, DMSO = 1): 0.9305
- Relative Intensity 300nM (PRKACG [2]; 300nM compound, DMSO = 1): 0.645
- Relative Intensity 1000nM (PRKACG [2]; 1000nM compound, DMSO = 1): 0.4141
- Kd (PRKACG [2]; [3]): 262 nM
- EC50 (PRKACG [2]; [4]): 303 nM
